Measured values taken from patent US20010055753A1, “Method to regulate CD40 signaling” (National Jewish Medical and Research Center, priority 1995, published 2001).

Key:
p42^erk2 [1] = assay: Immunoblot with anti-ERK2 antibody (mobility shift) in Ramos cells; assay type: cell-based, human; details: PMA 100 ng/ml or anti-IgM 10 μg/ml, anti-CD40 5 μg/ml, 0-60 min
Procedure: The human Burkitt's lymphoma cell line Ramos was obtained from the American Type Culture Collection (Rockville, Md.), and cells were maintained in RPMI-1640 supplemented with 50 units/ml penicillin-streptomycin, 2 mM glutamine, and 10% FCS. Exponentially growing cells were used in all experiments.
About 1×10^6 Ramos cells were separately treated with 10 μg/ml anti-IgM F(ab′)2 goat anti-human IgM antibody (obtained from Zymed, San Francisco, Calif.) or 5 μg/ml anti-CD40 antibody (G28-5; obtained from Dr. E. A. Clark, Washington University, Seattle, Wash.) for 0, 1, 5, 15, 30 or 60 min. Ramos cells were also treated with phorbol 12-myristate 13-acetate (PMA; obtained from Sigma, St Louis, Mo.). Immunoblot analysis was performed on each of the samples using monoclonal anti-ERK2 antibody in the following method. The treated cells were lysed in 100 μl of lysis buffer (25 mM Tris-HCl, pH 7.6, 50 mM NaCl, 0.5% Na deoxycholate, 2% NP-40, 0.2% SDS, 1 mM PMSF, 50 μg/ml aprotinin, 50 μM leupeptin). Lysates were centrifuged for 10 min at 14,000 rpm in an Eppendorf microcentrifuge, 90 μl of supernatants were mixed with 30 μl of 4×Laemmli sample buffer. Samples were boiled for 5 min. Twenty μl of prepared samples were electrophoresed through a 12% SDS-PAGE gel, and proteins were transferred to nitrocellulose membranes. […]

p42^erk2 [2] = assay: ERK kinase assay with EGFR662-681 peptide substrate, Ramos cells; assay type: cell-based, human; details: 100 ng/ml PMA for 20 min, control about 10,000 cpm
Procedure: Kinase activity was evaluated using EGFRF662-681 peptide as a substrate as described previously (Franklin et al., J. Immunol. 153:4890-4898, 1994). Following stimulation, 10^6 cells were lysed in 75 μl of lysis buffer (70 mM β-glycerophosphate, pH 7.2, […], 2 mM MgCl2, 1 mM EGTA, 0.5% Triton X-100, 5 μg/ml leupeptin, 2 μg/ml aprotinin and 1 mM DTT) and placed on ice for 15 min. Cell lysates were centrifuged at 14,000 rpm for 10 min and 20 μl of supernatant were removed and mixed with 20 μl of 2×kinase buffer (50 mM β-glycerophosphate, pH 7.2, […], 20 mM MgCl2, […], 1 mM EGTA, 400 μM EGFR662-681 peptide, 200 μM ATP and 0.225 mCi/ml[γ-^32P] ATP [ICN Biochemicals, Costa Mesa, Calif.]). After 15 min at 30° C., 10 μl of 250 mM EDTA was added, and 45 μl of the reaction mixture was spotted onto P-81 phosphocellulose paper (Whatman, Clifton, N.J.). The papers were washed four times (5 min each) in 400 ml of 75 mM phosphoric acid and then radioactivity bound to the filter paper was determined by liquid scintillation counting.

p38 MAP kinase = assay: p38 immunoprecipitation kinase assay with ATF-2 (1-110), neutrophils; assay type: cell-based; details: 100 ng/ml LPS, varying time intervals
Procedure: Neutrophils isolated by the plasma percoll method as previously described (Haslett, C., Am. J. Pathol. 119, 101-110; 1985) were resuspended at about 25×10^6 cells/ml in KRPD containing 0.1% Human Heat Inactivated Platelet-Poor Plasma, 1 mM PMSF, 10, μg/ml leupeptin and 10 μg/ml aprotinin. About 25×10^6 PMN were preincubated for 30 minutes at 37° C., then stimulated with 100 ng/ml LPS for varying time intervals and reactions terminated by a 20 second centrifugation at 15,000 rpm. Cell pellets were lysed with 500 μl cold RIPA (50 mM Tris pH=7.2, 150 mM NaCl, 1.1% SDS, 0.1% sodium deoxycholate, 1% Triton-X-100, 10 mM sodium pyrophosphate, 25 mM M glycerophosphate, 1 mM sodium orthovanadate and 2.1 μg/ml aprotinin), and centrifuged at 15,000 for 10 minutes at 4° C. Triton soluble lysates were initial precleared with Protein A Sepharose for 30 minutes at 4° C., followed by Protein A Sepharose immunoprecipitation with 5 μl/sample polyclonal antibodies specific for p38 and 15 μl of bead suspension, for 120 minutes at 4° C. Beads were washed once in RIPA and twice in PAN (10 mM Pipes, 100 mM NaCl, pH=7.0, and 21 μg/ml aprotinin). […] Reactions were terminated with 2×Laemelli buffer and after boiling, proteins were separated by SDS-PAGE, with quantification of activity by autoradiography and phosphorimaging, and qualitative analysis of enzyme presence and phosphorylation by Western Blotting.

| Compound | ERK2 mobility shift (bands reactive with anti-ERK2 antibody) (p42^erk2 [1]) | kinase activity (32P incorporation into EGFR662-681 peptide) (p42^erk2 [2]) | p38 MAP kinase activation (p38 MAP kinase) |
| --- | --- | --- | --- |
| CCCCCCCCCCCCCC(=O)O[C@@H]1[C@@H](C)[C@@]2(O)[C@@H](C=C(CO)C[C@]3(O)C(=O)C(C)=C[C@@H]23)[C@@H]2C(C)(C)[C@]12OC(C)=O [PMA, phorbol 12-myristate 13-acetate] | a second band with immunoreactivity to anti-ERK2 antibody appeared | about 30,000 counts per minute | – |
| lipopolysaccharide | – | – | activated |
